Data: PMC11881906, “Development of xanthone derivatives as effective broad-spectrum antimicrobials: Disrupting cell wall and inhibiting DNA synthesis” (Science Advances, 2025)
Converted amounts (≈) assume the structure as drawn.

What was measured:
S. aureus ATCC 29213 [1] = test: SYTOX Green uptake assay; type: cell-based, Staphylococcus aureus; conditions: up to 8× MIC
Method: (§1) The SYTOX Green uptake was measured to explore the inner membrane permeability. The overnight bacteria culture was centrifuged and resuspended in sterile PBS to obtain an OD600 of 0.2. SYTOX Green dye was added to a final concentration of 0.3 μM and incubated for 20 min without being exposed to the light. Fluorescence was measured at excitation and emission wavelengths of 504 and 523 nm, respectively. […] The changes in fluorescence intensity were continuously monitored for 1 hour. All measurements were repeated three times with duplicates each time.

E. coli ATCC 25922 = test: SYTOX Green uptake assay; type: cell-based, Escherichia coli; conditions: up to 8× MIC
Method: as §1

[2] = system: tested strains (Gram-positive and Gram-negative bacteria); test: MIC, summary over the tested strains; type: cell-based
Method: (§2) MIC was determined using the broth microdilution method in accordance with Clinical and Laboratory Standards Institute guidelines. All compounds were dissolved in dimethyl sulfoxide (DMSO; final DMSO concentration of less than 0.5%) and sterile double-distilled water and then diluted with Mueller-Hinton broth (MHB). Each compound’s stock solution was serially twofold diluted, resulting in concentrations ranging from 0.39 to 100 μg/ml, and thereafter added to sterile 96-well plates. All bacterial cell suspensions were adjusted in MHB to attain a starting inoculum of 1 × 10^6 cells/ml. A total of 100 μl volume of the bacterial suspension was then added to each well. Following a 24-hour incubation at 37°C, the optical density at 600 nm (OD600) was confirmed by measuring absorbance at 600 nm with a BioTek microplate reader. […] All measurements were repeated three times with duplicates each time.

S. aureus ATCC 29213 [3] = test: Time-kill kinetic assay; type: cell-based, Staphylococcus aureus; conditions: 10× MIC, 24 hours
Method: The bacterial cultures were standardized to obtain an initial density that ranged from 10^5 to 10^6 cells/ml. The cultures were incubated in a shaking bath at 37°C. Viable counts were determined at 0-, 0.5-, 1.0-, 2.0-, 4.0-, 8.0-, and 24-hour intervals by spotting 10-μl aliquots of serially 10-fold diluted cultures onto Mueller-Hinton agar (MHA) plates. […] All measurements were repeated three times with duplicates each time.

Gram-negative bacteria = test: MIC, Gram-negative strains; type: cell-based; conditions: read-out: MICs against Gram-negative bacteria
Method: as §2

[4] = In vivo corneal toxicity, fluorescein staining; set-up: species or system mice; conditions: topical application to murine cornea
Method: In addition, the in vivo toxicity assessment of compound XT17 toward murine cornea was conducted through local application using 1% fluorescein sodium solution to stain the cornea.

[5] = target: T1, topoisomerase IV from E. coli (Escherichia coli, UniProt P0AFI2+P20083); test: Topoisomerase IV decatenation inhibition assay; type: biochemical; conditions: 1× MIC
T1 construct: purchased ProFoldin (Worcester, MA)
Method: E. coli topoisomerase enzymes (II and IV) were supplied by ProFoldin (Worcester, MA), and assays were performed according to the manufacturer’s instructions. Briefly, the DNA supercoiling assay was conducted in a volume of 40 μl containing 24 μl of H2O, 4 μl of 10× buffer, 4 μl of 10× relaxed DNA, 4 μl of 10× enzyme, and 4 μl of 10 mM adenosine triphosphate (ATP). Following a 60-min incubation at room temperature, 200 μl of H2O was added to each reaction mixture. Topoisomerase IV decatenation inhibition assay was conducted in a volume of 50 μl containing 38.5 μl of H2O, 5 μl of 10× buffer, 5 μl of 10× concatenated DNA, 0.5 μl of 100× enzyme, and 1 μl of 10 mM ATP. After 60 min of incubation at 37°C, 5 μl of 0.4 M EDTA was added to stop the reaction. […]
In the supercoiling inhibition assay, the fluorescence intensity was measured using freshly prepared 1× H19 dye, which was prepared by diluting 100× H19 dye with 10 mM tris-HCl and 10 mM NaCl (pH 7.0). […] In the decatenation inhibition assay, the change in fluorescence intensity was monitored using the 1× fluorescence dye after diluting the 20× dye with water. The reaction solution eluted from the column was mixed with 150 μl of 1× fluorescence dye. The fluorescence intensity for both assays was lastly detected at 535 nm using an excitation wavelength of 485 nm. […]

LPS = test: BODIPY-TR-cadaverine displacement assay; type: binding
Method: (§3) The percentage of displacement from LTA-BODIPY/LPS-BODIPY by test compounds was determined according to BODIPY cadaverine displacement assay. […] The mixture was incubated in the dark for 30 min, and then the fluorescence was monitored at an excitation wavelength of 580 nm and an emission wavelength of 620 nm using a BioTek multidetector microplate reader. The percentage of displacement from LTA-BODIPY/LPS-BODIPY was calculated by the following formula: % Displacement = (FS − Fmin)/(Fmax − Fmin) × 100. Where FS is the fluorescence intensity observed at a given test compound concentration, Fmin is the fluorescence intensity of BODIPY with LTA/LPS and DMSO, and Fmax is the fluorescence intensity of BODIPY with only DMSO. All tests were carried out at least twice and with biological replicates.

LTA = test: BODIPY-TR-cadaverine displacement assay; type: binding
Method: as §3

[6] = for the free guanidine group, not the whole compound; cited from earlier work

T1 sequence (P20083 whole entry): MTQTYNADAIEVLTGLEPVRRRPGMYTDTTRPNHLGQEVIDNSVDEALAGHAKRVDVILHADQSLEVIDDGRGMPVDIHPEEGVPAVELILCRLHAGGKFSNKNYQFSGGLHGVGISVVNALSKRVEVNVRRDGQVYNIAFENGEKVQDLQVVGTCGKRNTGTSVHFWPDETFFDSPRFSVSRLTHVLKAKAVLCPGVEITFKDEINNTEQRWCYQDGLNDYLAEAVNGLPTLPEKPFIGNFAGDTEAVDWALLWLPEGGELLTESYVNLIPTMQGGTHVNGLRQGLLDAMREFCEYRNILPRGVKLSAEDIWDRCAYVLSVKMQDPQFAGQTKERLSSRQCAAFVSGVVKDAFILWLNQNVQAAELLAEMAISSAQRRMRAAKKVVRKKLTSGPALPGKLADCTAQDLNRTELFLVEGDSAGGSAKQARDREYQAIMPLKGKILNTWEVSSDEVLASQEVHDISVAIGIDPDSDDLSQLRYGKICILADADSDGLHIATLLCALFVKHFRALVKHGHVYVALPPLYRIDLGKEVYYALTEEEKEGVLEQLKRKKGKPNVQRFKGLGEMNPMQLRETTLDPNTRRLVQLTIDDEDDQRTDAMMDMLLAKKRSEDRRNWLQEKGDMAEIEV
T1 sequence (P0AFI2 whole entry): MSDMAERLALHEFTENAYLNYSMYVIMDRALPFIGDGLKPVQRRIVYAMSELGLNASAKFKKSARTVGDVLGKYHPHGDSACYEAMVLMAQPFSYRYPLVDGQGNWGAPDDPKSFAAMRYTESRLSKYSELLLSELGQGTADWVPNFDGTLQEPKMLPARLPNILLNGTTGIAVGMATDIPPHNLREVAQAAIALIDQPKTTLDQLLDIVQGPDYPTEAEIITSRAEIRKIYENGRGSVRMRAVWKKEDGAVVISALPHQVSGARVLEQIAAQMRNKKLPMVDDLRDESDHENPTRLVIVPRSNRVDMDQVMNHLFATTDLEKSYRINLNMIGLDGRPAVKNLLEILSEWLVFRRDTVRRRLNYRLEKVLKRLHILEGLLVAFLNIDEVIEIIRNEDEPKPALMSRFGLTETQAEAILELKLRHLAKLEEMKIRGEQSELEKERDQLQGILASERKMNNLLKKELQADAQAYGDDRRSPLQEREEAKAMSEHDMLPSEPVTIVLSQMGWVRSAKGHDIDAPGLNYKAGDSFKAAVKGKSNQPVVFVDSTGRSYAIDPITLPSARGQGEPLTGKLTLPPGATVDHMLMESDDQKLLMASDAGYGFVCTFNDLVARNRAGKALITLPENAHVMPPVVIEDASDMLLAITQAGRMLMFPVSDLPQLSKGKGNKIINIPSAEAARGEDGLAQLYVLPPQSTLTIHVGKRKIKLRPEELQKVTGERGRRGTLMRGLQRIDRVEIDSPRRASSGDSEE

CC(C)=CCOc1cc(OCCCNC(=N)N)cc2oc3cc(OCCCNC(=N)N)ccc3c(=O)c12 [XT17]
SYTOX Green fluorescence intensity (cytoplasmic membrane permeabilization) (S. aureus ATCC 29213 [1]): did not show a notable increase | SYTOX Green fluorescence intensity (cytoplasmic membrane permeabilization) (E. coli ATCC 25922): did not show a notable increase | fold increase in antibacterial activity ([2]; guanidine XT17 versus primary amine XT07): 8- to 32 fold | MIC ([2]; read-out: MICs against the tested strains): 0.39 to 3.12 µg/mL (≈ 0.764 to 6.12 µM) | log decrease in bacterial load (S. aureus ATCC 29213 [3]): 5.16 log | MIC (Gram-negative bacteria): 3.12 µg/mL (≈ 6.12 µM) | corneal damage (slit-lamp, fluorescein staining) [4]: no notable signs of corneal damage | Inhibition of topoisomerase IV (%) [5]: 36.93% | % Displacement from LPS (LPS; 1× MIC): 39.22% | % Displacement from LPS (LPS; 2× MIC): 52.67% | % Displacement from LPS (LPS; 4× MIC): 69.53% | % Displacement from LPS (LPS; 8× MIC): 75.50% | % Displacement from LTA (LTA; 1× MIC): 2.86% | % Displacement from LTA (LTA; 2× MIC): 14.81% | % Displacement from LTA (LTA; 4× MIC): 17.88% | % Displacement from LTA (LTA; 8× MIC): 32.95% | pKa [6]: 12.48
